Data: PubChem BioAssay (NCI)
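All cell lines were grown in 96-well plates and treated with compound for 48 hours. TGI is the concentration that stops growth completely.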

Columns and labels:
Assay in all cases: DTP human tumour cell line panel, 48 h
U251 CNS = system: U251 CNS
LOX IMVI melanoma = system: LOX IMVI melanoma
SF-295 CNS = system: SF-295 CNS
SR leukemia = system: SR leukemia
SF-539 CNS = system: SF-539 CNS
SK-MEL-5 melanoma = system: SK-MEL-5 melanoma
HOP-62 NSCLC = system: HOP-62 NSCLC
RPMI-8226 leukemia = system: RPMI-8226 leukemia
SF-268 CNS = system: SF-268 CNS
OVCAR-5 ovarian = system: OVCAR-5 ovarian
RXF 393 renal = system: RXF 393 renal
BT-549 breast = system: BT-549 breast
CCRF-CEM leukemia = system: CCRF-CEM leukemia
NCI/ADR-RES ovarian = system: NCI/ADR-RES ovarian
UACC-62 melanoma = system: UACC-62 melanoma
MDA-MB-435 = system: MDA-MB-435
K-562 leukemia = system: K-562 leukemia
NCI-H522 lung = system: NCI-H522 lung
TK-10 renal = system: TK-10 renal
CAKI-1 renal = system: CAKI-1 renal
SNB-75 CNS = system: SNB-75 CNS
MDA-MB-231 breast = system: MDA-MB-231 breast
SW-620 colon = system: SW-620 colon
NCI-H460 lung = system: NCI-H460 lung
SK-MEL-2 melanoma = system: SK-MEL-2 melanoma
HCT-15 colon = system: HCT-15 colon
DU-145 prostate = system: DU-145 prostate
A549 NSCLC = system: A549 NSCLC
MCF7 breast = system: MCF7 breast
SN12C renal = system: SN12C renal
OVCAR-3 ovarian = system: OVCAR-3 ovarian
UO-31 renal = system: UO-31 renal
HS 578T breast = system: HS 578T breast
SK-MEL-28 melanoma = system: SK-MEL-28 melanoma
HCC-2998 colon = system: HCC-2998 colon
KM12 colon = system: KM12 colon
SNB-19 CNS = system: SNB-19 CNS
NCI-H23 lung = system: NCI-H23 lung
HCT-116 colon = system: HCT-116 colon
M14 melanoma = system: M14 melanoma
SK-OV-3 ovarian = system: SK-OV-3 ovarian
T-47D breast = system: T-47D breast
MDA-N = system: MDA-N
UACC-257 melanoma = system: UACC-257 melanoma
OVCAR-8 ovarian = system: OVCAR-8 ovarian
PC-3 prostate = system: PC-3 prostate
HL-60(TB) leukemia = system: HL-60(TB) leukemia
HT29 colon = system: HT29 colon
786-0 renal = system: 786-0 renal
OVCAR-4 ovarian = system: OVCAR-4 ovarian
NCI-H226 lung = system: NCI-H226 lung
ACHN renal = system: ACHN renal
IGROV1 ovarian = system: IGROV1 ovarian
HOP-92 NSCLC = system: HOP-92 NSCLC
EKVX NSCLC = system: EKVX NSCLC
COLO 205 colon = system: COLO 205 colon
A498 renal = system: A498 renal
MOLT-4 leukemia = system: MOLT-4 leukemia
MALME-3M melanoma = system: MALME-3M melanoma

SMILES: COc1cccc(/C=C2\N=C(c3ccccc3)OC2=O)c1
- TGI (U251 CNS): > 100 µM
- TGI (LOX IMVI melanoma): 66.8 µM
- TGI (SF-295 CNS): > 100 µM
- TGI (SR leukemia): 65.2 µM
- TGI (SF-539 CNS): > 100 µM
- TGI (SK-MEL-5 melanoma): > 100 µM
- TGI (HOP-62 NSCLC): > 100 µM
- TGI (RPMI-8226 leukemia): 94.1 µM
- TGI (SF-268 CNS): > 100 µM
- TGI (OVCAR-5 ovarian): > 100 µM
- TGI (RXF 393 renal): > 100 µM
- TGI (BT-549 breast): > 100 µM
- TGI (CCRF-CEM leukemia): 58.8 µM
- TGI (NCI/ADR-RES ovarian): 90.6 µM
- TGI (UACC-62 melanoma): > 100 µM
- TGI (MDA-MB-435): > 100 µM
- TGI (K-562 leukemia): > 100 µM
- TGI (NCI-H522 lung): 42.5 µM
- TGI (TK-10 renal): > 100 µM
- TGI (CAKI-1 renal): > 100 µM
- TGI (SNB-75 CNS): 77.1 µM
- TGI (MDA-MB-231 breast): > 100 µM
- TGI (SW-620 colon): > 100 µM
- TGI (NCI-H460 lung): > 100 µM
- TGI (SK-MEL-2 melanoma): > 100 µM
- TGI (HCT-15 colon): > 100 µM
- TGI (DU-145 prostate): > 100 µM
- TGI (A549 NSCLC): > 100 µM
- TGI (MCF7 breast): > 100 µM
- TGI (SN12C renal): > 100 µM
- TGI (OVCAR-3 ovarian): > 100 µM
- TGI (UO-31 renal): > 100 µM
- TGI (HS 578T breast): > 100 µM
- TGI (SK-MEL-28 melanoma): > 100 µM
- TGI (HCC-2998 colon): > 100 µM
- TGI (KM12 colon): > 100 µM
- TGI (SNB-19 CNS): > 100 µM
- TGI (NCI-H23 lung): > 100 µM
- TGI (HCT-116 colon): > 100 µM
- TGI (M14 melanoma): > 100 µM
- TGI (SK-OV-3 ovarian): > 100 µM
- TGI (T-47D breast): > 100 µM
- TGI (MDA-N): > 100 µM
- TGI (UACC-257 melanoma): > 100 µM
- TGI (OVCAR-8 ovarian): > 100 µM
- TGI (PC-3 prostate): > 100 µM
- TGI (HL-60(TB) leukemia): 26 µM
- TGI (HT29 colon): > 100 µM
- TGI (786-0 renal): > 100 µM
- TGI (OVCAR-4 ovarian): > 100 µM
- TGI (NCI-H226 lung): > 100 µM
- TGI (ACHN renal): > 100 µM
- TGI (IGROV1 ovarian): > 100 µM
- TGI (HOP-92 NSCLC): > 100 µM
- TGI (EKVX NSCLC): > 100 µM
- TGI (COLO 205 colon): > 100 µM

SMILES: Cc1ccc(C(=O)N/N=C(\N=Nc2ccc([N+](=O)[O-])cc2)c2ccc(N(CCC#N)CCC#N)cc2C)cc1
- TGI (U251 CNS): > 100 µM
- TGI (LOX IMVI melanoma): > 100 µM
- TGI (SF-295 CNS): > 100 µM
- TGI (SR leukemia): > 100 µM
- TGI (SF-539 CNS): > 100 µM
- TGI (SK-MEL-5 melanoma): > 100 µM
- TGI (HOP-62 NSCLC): > 100 µM
- TGI (RPMI-8226 leukemia): > 100 µM
- TGI (SF-268 CNS): > 100 µM
- TGI (OVCAR-5 ovarian): > 100 µM
- TGI (RXF 393 renal): 50.9 µM
- TGI (BT-549 breast): > 100 µM
- TGI (CCRF-CEM leukemia): > 100 µM
- TGI (NCI/ADR-RES ovarian): > 100 µM
- TGI (MDA-MB-435): > 100 µM
- TGI (K-562 leukemia): > 100 µM
- TGI (TK-10 renal): > 100 µM
- TGI (CAKI-1 renal): > 100 µM
- TGI (SNB-75 CNS): > 100 µM
- TGI (MDA-MB-231 breast): > 100 µM
- TGI (SW-620 colon): > 100 µM
- TGI (A498 renal): > 100 µM
- TGI (NCI-H460 lung): > 100 µM
- TGI (SK-MEL-2 melanoma): > 100 µM
- TGI (HCT-15 colon): > 100 µM
- TGI (DU-145 prostate): > 100 µM
- TGI (A549 NSCLC): > 100 µM
- TGI (MCF7 breast): > 100 µM
- TGI (SN12C renal): > 100 µM
- TGI (OVCAR-3 ovarian): > 100 µM
- TGI (UO-31 renal): > 100 µM
- TGI (HS 578T breast): > 100 µM
- TGI (SK-MEL-28 melanoma): > 100 µM
- TGI (HCC-2998 colon): > 100 µM
- TGI (KM12 colon): > 100 µM
- TGI (SNB-19 CNS): > 100 µM
- TGI (NCI-H23 lung): > 100 µM
- TGI (MOLT-4 leukemia): > 100 µM
- TGI (HCT-116 colon): > 100 µM
- TGI (M14 melanoma): > 100 µM
- TGI (SK-OV-3 ovarian): > 100 µM
- TGI (T-47D breast): 83.4 µM
- TGI (MDA-N): > 100 µM
- TGI (UACC-257 melanoma): > 100 µM
- TGI (OVCAR-8 ovarian): > 100 µM
- TGI (PC-3 prostate): > 100 µM
- TGI (HL-60(TB) leukemia): 65.7 µM
- TGI (HT29 colon): > 100 µM
- TGI (786-0 renal): > 100 µM
- TGI (OVCAR-4 ovarian): > 100 µM
- TGI (MALME-3M melanoma): > 100 µM
- TGI (NCI-H226 lung): > 100 µM
- TGI (ACHN renal): > 100 µM
- TGI (IGROV1 ovarian): > 100 µM
- TGI (HOP-92 NSCLC): > 100 µM
- TGI (EKVX NSCLC): > 100 µM
- TGI (COLO 205 colon): > 100 µM

SMILES: c1ccc(C(Oc2noc3ccccc23)c2ccccc2)cc1
- TGI (U251 CNS): > 100 µM
- TGI (LOX IMVI melanoma): > 100 µM
- TGI (SF-295 CNS): > 100 µM
- TGI (SR leukemia): 51.6 µM
- TGI (SK-MEL-5 melanoma): 39.6 µM
- TGI (HOP-62 NSCLC): > 100 µM
- TGI (SF-268 CNS): > 100 µM
- TGI (OVCAR-5 ovarian): > 100 µM
- TGI (RXF 393 renal): 35.9 µM
- TGI (BT-549 breast): 96.4 µM
- TGI (CCRF-CEM leukemia): 49.7 µM
- TGI (NCI/ADR-RES ovarian): > 100 µM
- TGI (UACC-62 melanoma): > 100 µM
- TGI (MDA-MB-435): 75.4 µM
- TGI (K-562 leukemia): > 100 µM
- TGI (NCI-H522 lung): > 100 µM
- TGI (TK-10 renal): > 100 µM
- TGI (CAKI-1 renal): > 100 µM
- TGI (SNB-75 CNS): 37 µM
- TGI (MDA-MB-231 breast): > 100 µM
- TGI (SW-620 colon): > 100 µM
- TGI (A498 renal): > 100 µM
- TGI (NCI-H460 lung): > 100 µM
- TGI (HCT-15 colon): > 100 µM
- TGI (DU-145 prostate): 78.6 µM
- TGI (A549 NSCLC): > 100 µM
- TGI (MCF7 breast): > 100 µM
- TGI (SN12C renal): > 100 µM
- TGI (OVCAR-3 ovarian): > 100 µM
- TGI (UO-31 renal): > 100 µM
- TGI (HS 578T breast): > 100 µM
- TGI (SK-MEL-28 melanoma): > 100 µM
- TGI (HCC-2998 colon): 44.7 µM
- TGI (KM12 colon): > 100 µM
- TGI (SNB-19 CNS): > 100 µM
- TGI (NCI-H23 lung): > 100 µM
- TGI (MOLT-4 leukemia): 71.7 µM
- TGI (HCT-116 colon): > 100 µM
- TGI (M14 melanoma): 63.5 µM
- TGI (SK-OV-3 ovarian): > 100 µM
- TGI (T-47D breast): 23.1 µM
- TGI (MDA-N): 67.2 µM
- TGI (UACC-257 melanoma): 99.6 µM
- TGI (OVCAR-8 ovarian): > 100 µM
- TGI (PC-3 prostate): > 100 µM
- TGI (HL-60(TB) leukemia): 61.3 µM
- TGI (HT29 colon): > 100 µM
- TGI (786-0 renal): > 100 µM
- TGI (OVCAR-4 ovarian): > 100 µM
- TGI (MALME-3M melanoma): > 100 µM
- TGI (NCI-H226 lung): > 100 µM
- TGI (ACHN renal): > 100 µM
- TGI (IGROV1 ovarian): > 100 µM
- TGI (HOP-92 NSCLC): > 100 µM
- TGI (EKVX NSCLC): > 100 µM
- TGI (COLO 205 colon): 37 µM
